Reference: US10357486B2, “Treatment of cognitive impairment with PDE4 inhibitor” (Universiteit Maastricht, priority 2013, dated 2019)

Experiments:
Type in all cases: in vivo, human
[1] = test system: 60 to 80 years old subjects (Impaired Elderly and Healthy Elderly); assay: Spatial Memory Task and Stroop task in 60 to 80 years old subjects, interim analysis; settings: 100, 250, 1000 mcg
Experimental: The study is conducted according to a double-blind, placebo-controlled, four-period cross-over design. Forty healthy subjects, both male and female within an age range of 60 to 80 years are planned to be included in the study in 2 groups: 1) 20 subjects with a memory performance between 1-2 Standard Deviation below the average for their age, gender, and educated level (Impaired Elderly) and 2) 20 subjects with age (±3 years), gender, and educational level matched (in order to speed up the study matching was stopped after the interim analysis) with an average memory performance between 0.5 Standard Deviation below and 0.5 Standard Deviation above from normative values (Healthy Elderly). Classification in terms of impaired or healthy elderly will be determined by a one-off testing of memory performance using the Rey Verbal Learning Task (Rey A; L'examen psychologique dans les cas d'encephalopathy traumatique 1958 Paris; Presses Universitaire de France; or Van der Elst et al; J Int Neuropsychol Soc 2005, 11 (3), pp 290-302) according to fully standardized procedures as applied in The Maastricht Aging Study (Jolles et al; Maastricht Aging Study; determinants of cognitive aging; Maastricht, The Netherlands, Neuropsych Publishers 1995). […]

[2] = test system: healthy adults (18 to 35 years); assay: Verbal Learning Task (VLT) in healthy adults, 18 to 35 years
Description: The objective of this proof-of-concept study was to validate Roflumilast as cognitive enhancer using a translational behavior (i.e., cognitive testing)—EEG (i.e., brain electrical activity) approach.
Verbal Learning Task Analysis_The study utilized Verbal Learning Task (VLT) to analyze the increased number of words remembered following roflumilast administration. The VLT consisted of displaying 30 monosyllable words on a computer screen for a period of 60 seconds. Immediately after the presentation of the words on the computer screen subjects were asked to report as many words as they could recall by memory. This process (presentation and recall) was repeated further two times. In addition, 45 min and 24 h after the last presentation, subjects were again asked to report as many words as they could recall by memory. The set of three recall trials was conducted 60 minutes following administration of the roflumilast therapy.
Statistical Data Analyses Human data was analyzed using IBM SPSS Statistics version 20. General Linear Models for repeated measures were applied with the placebo condition included as contrast. Statistical outcomes for Tests of Within-Subjects Effects and
Tests of Within-Subjects Contrasts were regarded for immediate and delayed free recall scores and for the summed immediate recall score (i.e. immediate 1+immediate 2+immediate 3). The factor Treatment (4 levels; placebo, roflumilast 100 mcg, roflumilast 300 mcg and roflumilast 1000 mcg) was included as a within subjects factor. For the analysis of the EEG data, the factor Channel (5 levels; Fz, FCz, Cz, CPz, and Pz) was included as a second within subjects factor. Peak and latency values of three memory related ERP's were analysed; i.e. P300, N400 and P600. In case of significant findings (p<0.05) post-hoc t-tests were performed to reveal which of the five midline electrodes contributed to the effect.

[3] = Plasma concentration levels of roflumilast and roflumilast-N-oxide in humans
Description: An interim analysis has been performed based on the data of 9 subjects of the Impaired Elderly group and 4 subjects of the Healthy Elderly group. For this purpose, cognitive battery test scores (VLT, SMT, Stroop task and BL-VAS) and concentrations of roflumilast and roflumilast-N-oxide in plasma have been analysed and summarized by dose over each scheduled sampling time using descriptive statistics.

O=C(Nc1c(Cl)cncc1Cl)c1ccc(OC(F)F)c(OCC2CC2)c1 [roflumilast, N-(3,5-dichloropyridin-4-yl)-3-cyclopropylmethoxy-4-difluoromethoxybenzamide]
difference between placebo and drug treatment in the Spatial Memory Task and Stroop task [1]: No statistically significant differences | placebo-corrected fold-improvement in VLT ([2]; 100 mcg single dose, healthy volunteer study, 3rd trial): 1.12 | number of words on the 3rd trial of VLT ([2]; 100 mcg single dose, young volunteers, placebo 21.25): 23.7 words | improvement in number of correct words recalled in VLT (average) ([2]; single oral dose of 100 mcg, after the third trial): 2.5 words | exposure (concentrations in plasma) ([3]; elderly study, interim analysis, 100, 250, 1000 mcg): consistent with those previously reported | steady state plasma concentration levels in once a day repeated dosing compared to once a day single dosing ([3]; humans, once a day (24 h) regimen): about two-fold
